Results taken from PMC8880268, “Magnolol and Luteolin Inhibition of α-Glucosidase Activity: Kinetics and Type of Interaction Detected by In Vitro and In Silico Studies” (Pharmaceuticals, 2022).
Entries after “also recorded” stand apart in the source; their conditions may differ. Where two headings read alike, the source gives them in different places.

Columns and labels:
α-glucosidase [1] = target: T1, α-glucosidase (Saccharomyces cerevisiae, UniProt P38158); assay: Yeast α-glucosidase inhibitory assay (pNPG substrate, absorbance 405 nm); assay type: biochemical; conditions: for IC50: 2 mM pNPG
T1 construct: purchased Merck KGaA, Darmstadt, Germany
T1 sequence (P38158 whole entry): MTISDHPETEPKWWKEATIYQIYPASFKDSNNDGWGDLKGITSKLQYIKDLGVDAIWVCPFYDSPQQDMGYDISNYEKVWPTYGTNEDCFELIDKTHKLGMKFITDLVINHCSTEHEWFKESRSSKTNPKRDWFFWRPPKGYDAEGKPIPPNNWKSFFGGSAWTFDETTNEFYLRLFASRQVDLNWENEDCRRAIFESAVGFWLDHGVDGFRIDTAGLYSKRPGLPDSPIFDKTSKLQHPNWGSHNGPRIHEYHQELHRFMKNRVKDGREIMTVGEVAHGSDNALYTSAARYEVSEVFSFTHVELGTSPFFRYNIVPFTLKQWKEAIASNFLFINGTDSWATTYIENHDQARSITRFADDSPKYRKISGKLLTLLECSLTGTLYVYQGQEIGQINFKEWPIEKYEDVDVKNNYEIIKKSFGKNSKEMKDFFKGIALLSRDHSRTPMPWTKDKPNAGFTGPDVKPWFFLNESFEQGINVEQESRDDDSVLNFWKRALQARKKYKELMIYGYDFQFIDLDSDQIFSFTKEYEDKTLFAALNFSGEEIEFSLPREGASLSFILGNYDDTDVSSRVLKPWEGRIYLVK
Description: α-Glucosidase inhibitory activity was determined according to a previous method. Briefly, 0.1 mM PBS (pH 6.8) was used to dissolve α-glucosidase and pNPG. In detail, 80 μL of PBS or 80 μL of test sample were added to 96-well plates. Successively, 20 μL of enzyme (0.025–0.125 µM) were added to each well. Magnolol (10–100 μM) and luteolin (5–50 μM) were prepared in DMSO (<1% v/v). […] Each sample was incubated with α-glucosidase for 10 min at 37 °C. The reaction started by adding 200 μL of pNPG (2 mM). The absorbance values were detected at 405 nm for 60 min, using a PerkinElmer Victor Nivo microplate spectrophotometer (Waltham, MA, USA). The α-glucosidase activity in the absence of inhibitors was defined as 100%. The half-maximal inhibitory concentration (IC50) was estimated by plot of relative enzymatic activity vs. inhibitor concentration.

α-glucosidase [2] = target: T1, α-glucosidase; assay: Kinetic analysis of yeast α-glucosidase inhibition (Michaelis–Menten and Lineweaver–Burk plots); assay type: biochemical; conditions: for type of inhibition: Michaelis–Menten and Lineweaver–Burk plots; for Kcat of α-glucosidase: 0.075 µM α-glucosidase; for Vmax of α-glucosidase: converted using the Lambert–Beer relationship
Description: The type of enzyme inhibition exerted by inhibitors was evaluated from kinetic studies using different substrate concentrations (0.25–2.5 mM pNPG) applying Michaelis–Menten and Lineweaver–Burk plots. Inhibition constants (Ki) were determined by plots of the Y-intercept of the Lineweaver–Burk plot vs. inhibitor concentration.

α-glucosidase [3] = target: T1, α-glucosidase; assay: Inactivation kinetics, time course of α-glucosidase activity; assay type: biochemical; conditions: enzyme 0.075 µM, pNPG 2 mM
Description: The enzyme and substrate concentrations were 0.075 µM and 2 mM, respectively.

α-glucosidase [4] = target: T1, α-glucosidase; assay: Fluorescence quenching analysis and thermodynamic parameters; assay type: binding; conditions: for Ksv (Stern–Volmer quenching constant): pH 6.8, α-glucosidase 0.35 µM; for Kd: read-out: Ka (binding constant) (converted)
Description: The interaction of inhibitors with α-glucosidase was studied using the fluorescence quenching method. […] Measurements were made in the emission range of 300–450 nm, with an excitation of 280 nm, after 10 min of stabilization. The fluorescent spectra of α-glucosidase (0.35 µM) and each inhibitor (0–1.0 µM) were carried out at three different temperatures (298, 304, and 310 K) and the bandwidths were set at 5 nm for both emission and excitation slits. For each sample, three fluorescence spectra were acquired, and the blank was subtracted. The compound quenching mechanism was assessed using the Stern–Volmer equation: F0 / F = 1 + Ksv[Q] = 1 + Kq^.τo[Q], where F0 and F are the fluorescence measure in absence and in presence of different concentrations of quencher, respectively; Ksv is the Stern–Volmer quenching constant; Kq is the coefficient of quencher rate coefficient; τ0 is the life time of the excited state; and [Q] is the concentration of the quencher.
Further elaboration of the equilibrium within the free and bound molecules can be achieved through the analysis of the fluorescence emission data utilizing the following equation: log (F0 − F) / F = log Ka + n log [Q], which obtains the binding constant (Ka) and the number of binding sites per protein (n) for the enzyme-inhibitor system.
Thermodynamic spontaneity is an important factor in the study of protein-ligand interaction. A system tends not only toward a lower energy state (enthalpy, ΔH), but also according to a state of disorder (entropy, ΔS). Thermodynamic parameters were obtained according to the Van ’t Hoff equation and the plot of “log Ka vs. 1/T”. The trade-off between enthalpy (ΔH°) and entropy (ΔS°) is used to obtain the standard free energy variation (ΔG°).

α-glucosidase [5] = target: T1, α-glucosidase; assay: Non-radiation energy transfer (Förster resonance energy transfer) distance; assay type: binding; conditions: room temperature, pH 6.8, 0.35 µM
Description: The distance between magnolol and α-glucosidase was calculated according to the theory of Förster resonance energy transfer. To calculate the distance (r) between the donor and the acceptor, the emission wavelength of α-glucosidase was overlapped with the absorption band of the inhibitor. The fluorescence spectrum and the UV absorption spectrum of the inhibitor were collected in the wavelength range of 300–500 nm, at room temperature, pH 6.8, and at a concentration of 0.35 µM.

α-glucosidase [6] = target: T1, α-glucosidase; assay: Synchronous fluorescence spectra; conditions: pH 6.8, 298 K
From the text: The application of this method allows the identification of conformational changes in proteins according to the spectroscopic behavior of the tyrosine and tryptophan residues. Synchronous fluorescence spectra were collected in the emission range of 260–320 nm. The difference between excitation and emission wavelength (Δλ) was established at 15 nm (tyrosine residues) or at 60 nm (tryptophan residues).

[7] = 298–310 K, Van ’t Hoff equation

Which results are given for `C=CCc1ccc(O)c(-c2cc(CC=C)ccc2O)c1` [Magnolol, 5,5′-diallyl-biphenyl-2,2′-diol]?
IC50 (α-glucosidase [1]; IC50, α-glucosidase 0.025 × 10^−6 M): 28.3 ± 10.7 µM; IC50 (α-glucosidase [1]; IC50, α-glucosidase 0.05 × 10^−6 M): 28.5 ± 11 µM; IC50 (α-glucosidase [1]; IC50, α-glucosidase 0.075 × 10^−6 M): 32.6 ± 10.5 µM; IC50 (α-glucosidase [1]; IC50, α-glucosidase 0.125 × 10^−6 M): 35.5 ± 10.2 µM; reversibility of inhibition (α-glucosidase [1]; plots v vs. [α-glucosidase] at different inhibitor concentrations): reversible inhibition; IC50 (α-glucosidase [1]; −Log IC50, α-glucosidase 0.05 × 10^−6 M): 28.2 µM; type of inhibition (α-glucosidase [2]): mixed-type antagonism; type of inhibition (α-glucosidase [2]; listed as magnolol): mixed-type inhibition; also recorded: mixed-type inhibitor; also recorded: reversible mixed-type interaction; Kcat of α-glucosidase (α-glucosidase [2]; inhibitor 10 µM): 3.59 ± 0.17 s⁻¹; Vmax of α-glucosidase (α-glucosidase [2]; inhibitor 10 µM): 16.2 ± 0.80 µM/min; Kcat of α-glucosidase (α-glucosidase [2]; inhibitor 25 µM): 3.29 ± 0.15 s⁻¹; Vmax of α-glucosidase (α-glucosidase [2]; inhibitor 25 µM): 14.8 ± 0.70 µM/min; Kcat of α-glucosidase (α-glucosidase [2]; inhibitor 50 µM): 2.86 ± 0.13 s⁻¹; Vmax of α-glucosidase (α-glucosidase [2]; inhibitor 50 µM): 12.9 ± 0.60 µM/min; Kcat of α-glucosidase (α-glucosidase [2]; inhibitor 100 µM): 2.22 ± 0.29 s⁻¹; Vmax of α-glucosidase (α-glucosidase [2]; inhibitor 100 µM): 10.0 ± 1.30 µM/min; Inactivation rate constant K (α-glucosidase [3]; inhibitor 10 µM): 2.78 ± 0.05 10^−4 s^−1; Inactivation rate constant K (α-glucosidase [3]; inhibitor 25 µM): 2.81 ± 0.03 10^−4 s^−1; Inactivation rate constant K (α-glucosidase [3]; inhibitor 50 µM): 2.81 ± 0.01 10^−4 s^−1; Inactivation rate constant K (α-glucosidase [3]; inhibitor 100 µM): 2.85 ± 0.08 10^−4 s^−1; Kq (bimolecular quenching constant) (α-glucosidase [4]; 298 K): 3.90 ± 0.007 10^13 M^−1 s^−1; n (number of binding sites) (α-glucosidase [4]; 298 K): 0.39; Ksv (Stern–Volmer quenching constant) (α-glucosidase [4]; 298 K): 3.89 ± 0.01 10^5 M^−1; Kd (α-glucosidase [4]; 298 K): 3.37 µM; ΔH° (enthalpy change) (α-glucosidase [4]; [7]): 39.23 kJ/mol; ∆S° (entropy change) (α-glucosidase [4]; [7]): 121.83 J mol^−1K^−1; Kq (bimolecular quenching constant) (α-glucosidase [4]; 304 K): 4.22 ± 0.011 10^13 M^−1 s^−1; n (number of binding sites) (α-glucosidase [4]; 304 K): 0.42; ΔG° (free energy change) (α-glucosidase [4]; 304 K, Van ’t Hoff equation): -2.19 kJ/mol; Ksv (Stern–Volmer quenching constant) (α-glucosidase [4]; 304 K): 4.22 ± 0.01 10^5 M^−1; Kd (α-glucosidase [4]; 304 K): 2.2 µM; Kq (bimolecular quenching constant) (α-glucosidase [4]; 310 K): 5.30 ± 0.022 10^13 M^−1 s^−1; n (number of binding sites) (α-glucosidase [4]; 310 K): 0.65; ΔG° (free energy change) (α-glucosidase [4]; 310 K, Van ’t Hoff equation): -1.46 kJ/mol; Ksv (Stern–Volmer quenching constant) (α-glucosidase [4]; 310 K): 5.30 ± 0.02 10^5 M^−1; Kd (α-glucosidase [4]; 310 K): 1.82 µM; fluorescence quenching mechanism (α-glucosidase [4]; based on Ksv and Kq values): static-dynamic quenching process; number of binding sites (α-glucosidase [4]; no temperature stated): ~0.6; calculated distance between inhibitor and α-glucosidase (α-glucosidase [5]): 2.06 nm; shift of synchronous fluorescence maximum (α-glucosidase [6]; ∆λ = 15 nm (tyrosine residues)): red shift from 286 to 290; shift of synchronous fluorescence maximum (α-glucosidase [6]; ∆λ = 60 nm (tryptophan residues)): no modification
